The results in this text go back to ChEMBL document CHEMBL1139277, “Synthesis of tyrosinase inhibitory (4-oxo-4H-pyran-2-yl)acrylic acid ester derivatives” (Bioorg Med Chem Lett, 2009).

In assay [1] the test system is B16-F10. The assay can be described thus: Inhibition of melanin production in mouse B16F10 cells at 20 ug/ml after 72 hrs relative to control. Type of assay: functional. The following applies: B16-F10, 72 h.
For assay [2], the system named is B16-F10. The assay can be described thus: Cytotoxicity against mouse B16F10 cells at 20 ug/ml after 72 hrs by MTT assay. It counts as functional.
Assay [3] deals with B16-F10. The assay can be described thus: Inhibition of melanin production in mouse B16F10 cells at 40 ug/ml after 72 hrs relative to control. Type of assay: functional. To be noted: B16-F10, 72 h.
Assay [4] deals with B16-F10. Kind of assay: Cytotoxicity against mouse B16F10 cells at 40 ug/ml after 72 hrs by MTT assay. It counts as functional. In general terms: Tetrazolium assays rely on reduction of a dye to a coloured formazan, in cell work by metabolically active cells.
The next assay concerns the target T1, Tyrosinase (Agaricus bisporus, UniProt O42713).
T1 sequence (O42713 whole entry): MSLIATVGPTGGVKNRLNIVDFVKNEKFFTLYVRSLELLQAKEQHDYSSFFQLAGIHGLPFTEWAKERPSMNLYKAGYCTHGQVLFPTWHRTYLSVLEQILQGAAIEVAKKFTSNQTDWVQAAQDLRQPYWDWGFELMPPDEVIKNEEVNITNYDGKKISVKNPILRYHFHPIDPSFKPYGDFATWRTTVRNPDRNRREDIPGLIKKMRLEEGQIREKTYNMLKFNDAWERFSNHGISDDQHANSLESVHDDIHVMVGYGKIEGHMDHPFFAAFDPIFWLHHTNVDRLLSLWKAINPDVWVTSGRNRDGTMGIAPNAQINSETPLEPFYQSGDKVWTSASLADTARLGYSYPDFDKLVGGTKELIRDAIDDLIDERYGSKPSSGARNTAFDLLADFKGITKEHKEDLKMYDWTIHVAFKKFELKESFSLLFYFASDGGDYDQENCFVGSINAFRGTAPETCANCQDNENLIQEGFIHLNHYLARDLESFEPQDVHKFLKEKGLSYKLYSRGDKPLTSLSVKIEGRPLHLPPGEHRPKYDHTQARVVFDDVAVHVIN
Kind of assay: Inhibition of mushroom tyrosinase.

The compound `O=C(/C=C/c1cc(=O)c(O)co1)OCCOCCO` returned an inhibition at 20 µg/mL in the assay on B16-F10 [1] of 20.1%. Further, the results for the Activity with B16-F10 [2] and in the assay on B16-F10 [4] were 84.6% and 89.4%, respectively. In addition, the inhibition at 40 µg/mL in the assay with B16-F10 [3] was 32.4%. The IC50 on Tyrosinase turned out to be 26.5 µM.

The compound `COCCOC(=O)/C=C/c1cc(=O)c(O)co1` returned an inhibition at 20 µg/mL in the assay with B16-F10 [1] of 29.6%. Further, the Activity is 81.1% in the assay with B16-F10 [2] and 65.4% in the assay on B16-F10 [4]. Moreover, in the assay with B16-F10 [3], the inhibition at 40 µg/mL amounted to 47.8%. The compound further returned a 50% inhibitory concentration (IC50) against Tyrosinase of 98.1 µM.

Regarding `O=C(/C=C/c1cc(=O)c(O)co1)OCCOCCOCCO`, at 20 µg/mL the inhibition with B16-F10 [1] was 8.7%. The Activity in the assay with B16-F10 [2] was found to be 84.9%; with B16-F10 [4], 78.5%. Also, the inhibition at 40 µg/mL with B16-F10 [3] turned out to be 17.9%. Further, on Tyrosinase, half-maximal inhibition (IC50) required 79.2 µM.

In the assay on B16-F10 [1], `O=C(/C=C/c1cc(=O)c(O)co1)OCCO` returned an inhibition at 20 µg/mL of 30%. Besides, the values for the Activity with B16-F10 [2] and with B16-F10 [4] were 80.5% and 74.8%, respectively. The same compound yielded an inhibition at 40 µg/mL with B16-F10 [3] of 41.6%. On Tyrosinase, this compound returned an IC50 of 74.9 µM.

As for `COCCOCCOCCOC(=O)/C=C/c1cc(=O)c(O)co1`, the inhibition at 20 µg/mL with B16-F10 [1] was determined as 11%. The figures for the Activity with B16-F10 [2] and in the assay with B16-F10 [4] were 83.9% and 79.7%, respectively. In the assay with B16-F10 [3], testing at 40 µg/mL gave an inhibition of 25.4%. Moreover, 67.6 µM corresponded to half-maximal inhibition at Tyrosinase (IC50).

`CCOC(=O)/C=C/c1cc(=O)c(O)co1` displayed an inhibition at 20 µg/mL in the assay on B16-F10 [1] of 46.1%. Besides, the Activity amounted to 72% in the assay on B16-F10 [2] and 39.2% in the assay on B16-F10 [4]. For the same compound, 40 µg/mL produced 65% inhibition in the assay with B16-F10 [3]. At Tyrosinase, this compound showed an IC50 of 36.3 µM.

As for `CC(C)OC(=O)/C=C/c1cc(=O)c(O)co1`, in the assay with B16-F10 [1], testing at 20 µg/mL gave an inhibition of 19.5%. The Activity came out at 50.9% with B16-F10 [2] and 37.4% with B16-F10 [4]. Further, the inhibition at 40 µg/mL in the assay with B16-F10 [3] stood at 69.8%. The same compound had an IC50 against Tyrosinase of 80.3 µM.

Compound `CCCCCCCCOC(=O)/C=C/c1cc(=O)c(O)co1` returned an inhibition at 20 µg/mL in the assay with B16-F10 [1] of 25%. Further, the Activity in the assay on B16-F10 [2] worked out at 85%; with B16-F10 [4], 62.5%. In the assay with B16-F10 [3], this compound showed an inhibition at 40 µg/mL of 54.6%. At Tyrosinase, the IC50 was > 400 µM.

Consider `COCCOCCOC(=O)/C=C/c1cc(=O)c(O)co1`, for which, in the assay with B16-F10 [1], the inhibition at 20 µg/mL came to 19.5%. Moreover, the Activity turned out to be 88.7% in the assay with B16-F10 [2] and 83.4% with B16-F10 [4]. The compound further gave an inhibition at 40 µg/mL with B16-F10 [3] of 24%. The IC50 on Tyrosinase turned out to be 59.1 µM.

By inhibition is commonly meant the percentage by which the read-out fell short of the control. As usually defined, the IC50 is the concentration that inhibits the measured activity by half. A low value points to greater potency.
